Reference: ChEMBL document CHEMBL1150678, “Bioactive sterols from the starfish Certonardoa semiregularis” (2003)
≈ marks a conversion by molar mass, not a printed value.

Assays:
Escherichia coli [1] = experiment: Antimicrobial activity against Escherichia coli 078 isolate after 18 hrs; type: functional
Streptococcus pyogenes [2] = experiment: Antimicrobial activity against Streptococcus pyogenes 77A isolate after 18 hrs; type: functional
Staphylococcus aureus [3] = experiment: Antimicrobial activity against Staphylococcus aureus SG511 isolate after 18 hrs; type: functional
Escherichia coli [4] = experiment: Antimicrobial activity against Escherichia coli 1507E isolate after 18 hrs; type: functional
A549 = experiment: Cytotoxicity against human A549 cells; type: functional; conditions: read-out: ED50 (the source's name)
Staphylococcus aureus [5] = experiment: Antimicrobial activity against Staphylococcus aureus 503 isolate after 18 hrs; type: functional
Escherichia coli [6] = experiment: Antimicrobial activity against Escherichia coli TEM isolate after 18 hrs; type: functional
Streptococcus pyogenes [7] = experiment: Antimicrobial activity against Streptococcus pyogenes 308A isolate after 18 hrs; type: functional
Staphylococcus aureus [8] = experiment: Antimicrobial activity against Staphylococcus aureus 285 isolate after 18 hrs; type: functional
Klebsiella aerogenes = experiment: Antimicrobial activity against Klebsiella aerogenes 1522E after 18 hrs; type: functional
HCT-15 = experiment: Cytotoxicity against human HCT15 cells; type: functional; conditions: read-out: ED50 (the source's name)
Pseudomonas aeruginosa [9] = experiment: Antimicrobial activity against Pseudomonas aeruginosa 1592E isolate after 18 hrs; type: functional
Escherichia coli [10] = experiment: Antimicrobial activity against Escherichia coli DC2 isolate after 18 hrs; type: functional
Pseudomonas aeruginosa [11] = experiment: Antimicrobial activity against Pseudomonas aeruginosa 1771 isolate after 18 hrs; type: functional
Klebsiella oxytoca = experiment: Antimicrobial activity against Klebsiella oxytoca 1082E after 18 hrs; type: functional
Enterobacter cloacae [12] = experiment: Antimicrobial activity against Enterobacter cloacae P99 after 18 hrs; type: functional
Enterococcus faecium = experiment: Antimicrobial activity against Streptococcus faecium MD8b isolate after 18 hrs; type: functional
XF498 = experiment: Cytotoxicity against human XF498 cells; type: functional; conditions: read-out: ED50 (the source's name)
Pseudomonas aeruginosa [13] = experiment: Antimicrobial activity against Pseudomonas aeruginosa 9027 isolate after 18 hrs; type: functional
Pseudomonas aeruginosa [14] = experiment: Antimicrobial activity against Pseudomonas aeruginosa 1771M isolate after 18 hrs; type: functional
Salmonella typhimurium = experiment: Antimicrobial activity against Salmonella Typhimurium after 18 hrs; type: functional, Salmonella enterica subsp. enterica serovar Typhimurium; conditions: Salmonella enterica
Enterobacter cloacae [15] = experiment: Antimicrobial activity against Enterobacter cloacae 1321E after 18 hrs; type: functional
SK-OV-3 = experiment: Cytotoxicity against human SKOV3 cells; type: functional; conditions: read-out: ED50 (the source's name)
Escherichia coli [16] = experiment: Antimicrobial activity against Escherichia coli DC0 isolate after 18 hrs; type: functional
SK-MEL-2 = experiment: Cytotoxicity against human SK-MEL-2 cells; type: functional; conditions: read-out: ED50 (the source's name)

MIC (Escherichia coli [1])	MIC (Streptococcus pyogenes [2])	MIC (Staphylococcus aureus [3])	MIC (Escherichia coli [4])	MIC (Staphylococcus aureus [5])	MIC (Escherichia coli [6])	MIC (Streptococcus pyogenes [7])	MIC (Staphylococcus aureus [8])	MIC (Klebsiella aerogenes)	MIC (Pseudomonas aeruginosa [9])	MIC (Escherichia coli [10])	MIC (Pseudomonas aeruginosa [11])	MIC (Klebsiella oxytoca)	MIC (Enterobacter cloacae [12])	MIC (Enterococcus faecium)	MIC (Pseudomonas aeruginosa [13])	MIC (Pseudomonas aeruginosa [14])	Compound	EC50 (A549)	EC50 (HCT-15)	EC50 (XF498)	other results
> 25 µg/mL	> 25 µg/mL	> 25 µg/mL	> 25 µg/mL	> 25 µg/mL	> 25 µg/mL	12.5 µg/mL (≈ 27.6 µM)	> 25 µg/mL	> 25 µg/mL	> 25 µg/mL	> 25 µg/mL	25 µg/mL (≈ 55.2 µM)	> 25 µg/mL	> 25 µg/mL	> 25 µg/mL	> 25 µg/mL	25 µg/mL (≈ 55.2 µM)	CC(C)[C@@H](O)CC[C@@H](C)[C@H]1C[C@@H](O)[C@@H]2[C@]1(C)CC[C@@H]1[C@@]3(C)CC[C@H](O)C[C@@H]3[C@@H](O)C[C@]12O	11.3 µg/mL (≈ 25 µM)	19.4 µg/mL (≈ 42.9 µM)	11.4 µg/mL (≈ 25.2 µM)	MIC (Salmonella typhimurium): > 25 µg/mL; MIC (Enterobacter cloacae [15]): > 25 µg/mL; EC50 (SK-OV-3): 15.6 µg/mL (≈ 34.5 µM); MIC (Escherichia coli [16]): > 25 µg/mL; EC50 (SK-MEL-2): 12.4 µg/mL (≈ 27.4 µM)
> 25 µg/mL	> 25 µg/mL	> 25 µg/mL	> 25 µg/mL	> 25 µg/mL	> 25 µg/mL	25 µg/mL (≈ 52 µM)	> 25 µg/mL	> 25 µg/mL	> 25 µg/mL	> 25 µg/mL	25 µg/mL (≈ 52 µM)	> 25 µg/mL	> 25 µg/mL	> 25 µg/mL	> 25 µg/mL	25 µg/mL (≈ 52 µM)	C=C(CC[C@@H](C)[C@H]1C[C@@H](O)[C@@H]2[C@]1(C)CC[C@@H]1[C@@]3(C)CC[C@H](O)[C@H](O)[C@@H]3[C@@H](O)C[C@]12O)[C@H](C)CO [CERTONARDOSTEROL A]	3.1 µg/mL (≈ 6.45 µM)	4.5 µg/mL (≈ 9.36 µM)	4.4 µg/mL (≈ 9.15 µM)	MIC (Salmonella typhimurium): > 25 µg/mL; MIC (Enterobacter cloacae [15]): > 25 µg/mL; EC50 (SK-OV-3): 7.3 µg/mL (≈ 15.2 µM); MIC (Escherichia coli [16]): > 25 µg/mL; EC50 (SK-MEL-2): 4.1 µg/mL (≈ 8.53 µM)
> 25 µg/mL	> 25 µg/mL	> 25 µg/mL	> 25 µg/mL	> 25 µg/mL	> 25 µg/mL	25 µg/mL (≈ 53.8 µM)	> 25 µg/mL	> 25 µg/mL	> 25 µg/mL	> 25 µg/mL	25 µg/mL (≈ 53.8 µM)	> 25 µg/mL	> 25 µg/mL	> 25 µg/mL	> 25 µg/mL	25 µg/mL (≈ 53.8 µM)	C=C(CC[C@@H](C)[C@H]1C[C@@H](O)[C@H]2[C@@H]3C[C@H](O)[C@H]4[C@@H](O)[C@@H](O)CC[C@]4(C)[C@H]3CC[C@@]21C)[C@H](C)CO [CERTONARDOSTEROL B]	3.6 µg/mL (≈ 7.75 µM)	6.4 µg/mL (≈ 13.8 µM)	4.7 µg/mL (≈ 10.1 µM)	MIC (Salmonella typhimurium): > 25 µg/mL; MIC (Enterobacter cloacae [15]): > 25 µg/mL; EC50 (SK-OV-3): 6.9 µg/mL (≈ 14.8 µM); MIC (Escherichia coli [16]): > 25 µg/mL; EC50 (SK-MEL-2): 4.9 µg/mL (≈ 10.5 µM)
> 25 µg/mL	> 25 µg/mL	> 25 µg/mL	> 25 µg/mL	> 25 µg/mL	> 25 µg/mL	25 µg/mL (≈ 53.8 µM)	> 25 µg/mL	> 25 µg/mL	> 25 µg/mL	> 25 µg/mL	25 µg/mL (≈ 53.8 µM)	> 25 µg/mL	> 25 µg/mL	> 25 µg/mL	> 25 µg/mL	25 µg/mL (≈ 53.8 µM)	C=C(CC[C@@H](C)[C@H]1C[C@@H](O)[C@@H]2[C@]1(C)CC[C@@H]1[C@@]3(C)CC[C@H](O)C[C@@H]3[C@@H](O)C[C@]12O)[C@H](C)CO [CERTONARDOSTEROL C]	14.1 µg/mL (≈ 30.3 µM)	23.9 µg/mL (≈ 51.4 µM)	13.3 µg/mL (≈ 28.6 µM)	MIC (Salmonella typhimurium): > 25 µg/mL; MIC (Enterobacter cloacae [15]): > 25 µg/mL; EC50 (SK-OV-3): 20.2 µg/mL (≈ 43.5 µM); MIC (Escherichia coli [16]): > 25 µg/mL; EC50 (SK-MEL-2): 15.1 µg/mL (≈ 32.5 µM)
> 25 µg/mL	> 25 µg/mL	> 25 µg/mL	> 25 µg/mL	> 25 µg/mL	> 25 µg/mL	25 µg/mL (≈ 55.7 µM)	> 25 µg/mL	> 25 µg/mL	> 25 µg/mL	> 25 µg/mL	25 µg/mL (≈ 55.7 µM)	> 25 µg/mL	> 25 µg/mL	> 25 µg/mL	> 25 µg/mL	25 µg/mL (≈ 55.7 µM)	C=C(CC[C@@H](C)[C@H]1C[C@@H](O)[C@H]2[C@@H]3C[C@H](O)[C@H]4C[C@@H](O)CC[C@]4(C)[C@H]3CC[C@@]21C)[C@H](C)CO [CERTONARDOSTEROL D]	5.3 µg/mL (≈ 11.8 µM)	9.6 µg/mL (≈ 21.4 µM)	4.8 µg/mL (≈ 10.7 µM)	MIC (Salmonella typhimurium): > 25 µg/mL; MIC (Enterobacter cloacae [15]): > 25 µg/mL; EC50 (SK-OV-3): 8.5 µg/mL (≈ 18.9 µM); MIC (Escherichia coli [16]): > 25 µg/mL; EC50 (SK-MEL-2): 5.5 µg/mL (≈ 12.3 µM)
